# Data from ChEMBL document CHEMBL3797190, “Development of 3,5-Dinitrobenzylsulfanyl-1,3,4-oxadiazoles and Thiadiazoles as Selective Antitubercular Agents Active Against Replicating and Nonreplicating Mycobacterium tuberculosis” (J Med Chem, 2016).
# What was measured:
# Format in all cases: functional
# [1] = system: Mycobacterium tuberculosis; assay: Antimycobacterial activity against Mycobacterium tuberculosis CNCTC My 331/88 after 14 days by microdilution method; conditions: CNCTC My 331/88, 336 h
# Mycobacterium avium [2] = assay: Antimycobacterial activity against Mycobacterium avium CNCTC My 330/88 after 14 days by microdilution method; conditions: CNCTC My 330/88, 336 h
# Mycobacterium kansasii [3] = assay: Antimycobacterial activity against Mycobacterium kansasii CNCTC My 235/80 after 14 days by microdilution method; conditions: CNCTC My 235/80, 336 h
# Mycobacterium kansasii [4] = assay: Antimycobacterial activity against Mycobacterium kansasii CNCTC My 6509/96 after 14 days by microdilution method; conditions: CNCTC My 6509/96, 336 h
# [5] = system: Mycobacterium tuberculosis; assay: Antimycobacterial activity against Mycobacterium tuberculosis CNCTC My 331/88 after 21 days by microdilution method; conditions: CNCTC My 331/88, 504 h
# Mycobacterium avium [6] = assay: Antimycobacterial activity against Mycobacterium avium CNCTC My 330/88 after 21 days by microdilution method; conditions: CNCTC My 330/88, 504 h
# Mycobacterium kansasii [7] = assay: Antimycobacterial activity against Mycobacterium kansasii CNCTC My 235/80 after 21 days by microdilution method; conditions: CNCTC My 235/80, 504 h
# Mycobacterium kansasii [8] = assay: Antimycobacterial activity against Mycobacterium kansasii CNCTC My 6509/96 after 21 days by microdilution method; conditions: CNCTC My 6509/96, 504 h
# Mycobacterium kansasii [9] = assay: Antimycobacterial activity against Mycobacterium kansasii CNCTC My 235/80 after 7 days by microdilution method; conditions: CNCTC My 235/80, 168 h
# Mycobacterium kansasii [10] = assay: Antimycobacterial activity against Mycobacterium kansasii CNCTC My 6509/96 after 7 days by microdilution method; conditions: CNCTC My 6509/96, 168 h
Structure (SMILES),MIC99 [1] [µM],MIC99 (Mycobacterium avium [2]) [µM],MIC99 (Mycobacterium kansasii [3]) [µM],MIC99 (Mycobacterium kansasii [4]) [µM],MIC99 [5] [µM],MIC99 (Mycobacterium avium [6]) [µM],MIC99 (Mycobacterium kansasii [7]) [µM],MIC99 (Mycobacterium kansasii [8]) [µM],MIC99 (Mycobacterium kansasii [9]) [µM],MIC99 (Mycobacterium kansasii [10]) [µM]
O=[N+]([O-])c1ccc(-c2nnc(SCc3cc([N+](=O)[O-])cc(C(F)(F)F)c3)s2)cc1,> 32,> 500,> 32,> 32,> 32,> 500,> 32,> 32,> 32,> 32
O=[N+]([O-])c1ccc(CSc2nnc(-c3ccccc3)s2)c([N+](=O)[O-])c1,8,8,4,2,16,32,4,4,1,1
Cc1nnc(SCc2cc([N+](=O)[O-])cc([N+](=O)[O-])c2)s1,4,125,4,8,4,125,8,16,4,8
O=[N+]([O-])c1ccc(CSc2nnc(-c3ccc([N+](=O)[O-])cc3)o2)cc1,250,250,250,62,250,250,250,62,250,62
O=[N+]([O-])c1ccc(-c2nnc(SCc3cc([N+](=O)[O-])cc(C(F)(F)F)c3)o2)cc1,32,> 500,32,32,32,> 500,32,32,16,16
Cc1cc(C)cc(-c2nnc(SCc3cc([N+](=O)[O-])cc([N+](=O)[O-])c3)s2)c1,0.125,> 16,1,0.5,0.125,> 16,1,0.5,0.25,0.25
O=[N+]([O-])c1cc(CSc2nnc(C3CCCCC3)o2)cc([N+](=O)[O-])c1,≤ 0.03,–,–,–,≤ 0.03,–,–,–,–,–
Nc1cc(N)cc(CSc2nnc(-c3ccc([N+](=O)[O-])cc3)s2)c1,250,250,250,250,250,250,250,250,250,250
Cc1ccc(-c2nnc(SCc3cc([N+](=O)[O-])cc(C(F)(F)F)c3)s2)cc1,> 32,> 500,> 32,> 32,> 32,> 500,> 32,> 32,> 32,> 32
O=[N+]([O-])c1cc(CSc2nnc(-c3ccc(Cl)cc3)s2)cc(C(F)(F)F)c1,> 32,> 500,> 32,> 32,> 32,> 500,> 32,> 32,> 32,> 32
Cc1ccc(-c2nnc(SCc3cc([N+](=O)[O-])cc(C(F)(F)F)c3)o2)cc1,> 32,> 500,> 32,> 32,> 32,> 500,> 32,> 32,> 32,> 32
NNC(=O)c1ccncc1 [ISONIAZID],–,> 250,> 250,4,–,> 250,> 250,4,> 250,4
O=[N+]([O-])c1cc(CSc2nnc(-c3ccccc3Cl)s2)cc([N+](=O)[O-])c1,0.125,16,1,1,0.125,> 16,1,1,0.5,0.5
